We go through 16 compounds from US11198681B2, “Heteroaryl inhibitors of PAD4” (Padlock Therapeutics, Inc., priority 2016, dated 2021).

SMILES strings stand for the structures. Like-named read-outs stand apart in the source and are kept apart here.

The test addresses hPAD4 (Homo sapiens (Human), UniProt Q9UM07). As to the kind of experiment: hPAD4 AR assay (Table 2). The format is biochemical.
The mark [1] stands for this setting: read-out: hPAD4 AR pIC50 (converted).

Sequence of hPAD4 (Q9UM07 whole entry): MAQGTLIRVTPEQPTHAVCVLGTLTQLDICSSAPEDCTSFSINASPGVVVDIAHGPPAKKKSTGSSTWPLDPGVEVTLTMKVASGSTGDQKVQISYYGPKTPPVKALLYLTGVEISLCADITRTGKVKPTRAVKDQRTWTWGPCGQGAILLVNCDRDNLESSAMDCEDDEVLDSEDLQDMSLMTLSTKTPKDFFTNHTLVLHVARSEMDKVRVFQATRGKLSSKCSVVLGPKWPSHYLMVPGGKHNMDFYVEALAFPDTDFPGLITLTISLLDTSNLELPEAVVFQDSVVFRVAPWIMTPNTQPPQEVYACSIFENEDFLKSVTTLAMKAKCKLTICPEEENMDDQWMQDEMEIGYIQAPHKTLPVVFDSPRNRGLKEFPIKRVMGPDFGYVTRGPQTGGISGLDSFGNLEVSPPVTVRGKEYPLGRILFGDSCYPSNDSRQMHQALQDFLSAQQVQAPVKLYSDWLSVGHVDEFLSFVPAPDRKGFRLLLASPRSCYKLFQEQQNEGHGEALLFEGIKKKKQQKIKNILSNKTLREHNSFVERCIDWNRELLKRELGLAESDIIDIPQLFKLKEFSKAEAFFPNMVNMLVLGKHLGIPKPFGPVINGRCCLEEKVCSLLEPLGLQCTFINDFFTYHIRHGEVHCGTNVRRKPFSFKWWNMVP

In the case of `COc1cc(C(=O)N2C[C@H]3CC[C@@H]2[C@@H]3N)cc2nc(-c3ccc(C#N)n3C3CC3)n(C)c12` [I-81, 5-{5-[(1R,4R,7R)-7-Amino-2-azabicyclo[2.2.1]heptane-2-carbonyl]-7-methoxy-1-methyl-1H-1,3-benzodiazol-2-yl}-1-cyclopropyl-1H-pyrrole-2-carbonitrile], the IC50 was < 1000 nM (read-out: hPAD4 AR IC50) and < 1000 nM under setting [1].

For `COc1cc(C(=O)N2C[C@H]3CC[C@@H]2[C@@H]3N)cc2nc(-c3ccc(C#N)n3CC(F)(F)F)n(C)c12` [I-82, 5-{5-[(1R,4R,7R)-7-Amino-2-azabicyclo[2.2.1]heptane-2-carbonyl]-7-methoxy-1-methyl-1H-1,3-benzodiazol-2-yl}-1-(2,2,2-trifluoroethyl)-1H-pyrrole-2-carbonitrile], the IC50 is < 1000 nM (read-out: hPAD4 AR IC50) and < 1000 nM under setting [1].

Consider `COc1cc(C(=O)N2C[C@H]3CC[C@@H]2[C@@H]3N)cc2nc(-c3ccc(C#N)n3C[C@@H](C)c3ccccc3)n(C)c12` [I-84], for which the IC50 was < 1000 nM (read-out: hPAD4 AR IC50) and < 1000 nM under setting [1].

With `COc1cc(C(=O)N2C[C@H]3CC[C@@H]2[C@@H]3N)cc2nc(-c3ccc(C#N)n3C[C@H](C)c3ccccc3)n(C)c12` [I-85], the IC50 is < 1000 nM (read-out: hPAD4 AR IC50) and < 1000 nM under setting [1].

As for `CCn1c(-c2cnc(-c3ccccc3)n2CC2CC2)nc2cc(C(=O)N3C[C@H]4CC[C@@H]3[C@@H]4N)cc(OC)c21` [I-86, (1R,4R,7R)-2-{2-[1-(Cyclopropylmethyl)-2-phenyl-1H-imidazol-5-yl]-1-ethyl-7-methoxy-1H-1,3-benzodiazole-5-carbonyl}-2-azabicyclo[2.2.1]heptan-7-amine], the IC50 is < 1000 nM (read-out: hPAD4 AR IC50) and < 1000 nM under setting [1].

As for `Cn1c(-c2cnc(-c3ccccc3)n2CC2CC2)nc2cc(C(=O)N3C[C@H]4CC[C@@H]3[C@@H]4N)cc(F)c21` [I-87], the IC50 runs as follows: (read-out: hPAD4 AR IC50) < 1000 nM; under setting [1], < 1000 nM.

For the compound `COc1cccc(-c2nc3cc(C(=O)N4C[C@H]5CC[C@@H]4[C@@H]5N)cc(OC)c3n2C)n1` [I-88], the IC50 is > 10000 nM (read-out: hPAD4 AR IC50) and 10000 to 100000 nM under setting [1].

Consider `COc1cc(C(=O)N2C[C@H]3CC[C@@H]2[C@@H]3N)cc2nc(-c3ccc(C#N)n3C[C@H]3C[C@@](C)(OC)C3)n(C)c12` [I-89, 5-{5-[(1R,4R,7R)-7-Amino-2-azabicyclo[2.2.1]heptane-2-carbonyl]-7-methoxy-1-methyl-1H-1,3-benzodiazol-2-yl}-1-{[(1R,3S)-3-methoxy-3-methylcyclobutyl]methyl}-1H-pyrrole-2-carbonitrile], for which the IC50 runs as follows: (read-out: hPAD4 AR IC50) < 1000 nM; under setting [1], < 1000 nM.

Turning to `CCc1c(-c2nc3cc(C(=O)N4C[C@H]5CC[C@@H]4[C@@H]5N)cc(OC)c3n2C)ccn1S(=O)(=O)c1ccc(C)cc1` [I-92], the IC50 is, setting by setting: (read-out: hPAD4 AR IC50) < 1000 nM; under setting [1], < 1000 nM.

As for `COc1cc(C(=O)N2C[C@H]3CC[C@@H]2[C@@H]3N)cc2nc(-c3cccc(=O)n3CC3CC3)n(C)c12` [I-102, 6-{5-[(1R,4R,7R)-7-Amino-2-azabicyclo[2.2.1]heptane-2-carbonyl]-7-methoxy-1-methyl-1H-1,3-benzodiazol-2-yl}-1-(cyclopropylmethyl)-1,2-dihydropyridin-2-one], the IC50 runs as follows: (read-out: hPAD4 AR IC50) < 1000 nM; under setting [1], < 1000 nM.

Take `COc1cc(C(=O)N2C[C@H]3CC[C@@H]2[C@@H]3N)cc2nc(-c3cccnc3CC3CC3)n(C)c12` [I-105, (1R,4R,7R)-2-{2-[2-(Cyclopropylmethyl)pyridin-3-yl]-7-methoxy-1-methyl-1H-1,3-benzodiazole-5-carbonyl}-2-azabicyclo[2.2.1]heptan-7-amine]: the IC50 (read-out: hPAD4 AR IC50) was < 1000 nM and the IC50 under setting [1] was < 1000 nM.

As to `COc1cc(C(=O)N2C[C@H]3CC[C@@H]2[C@@H]3N)cc2nc(-c3cccnc3CC3CC3C)n(C)c12` (some centres unmarked) [I-108], the IC50 runs as follows: (read-out: hPAD4 AR IC50) < 1000 nM; under setting [1], < 1000 nM.

`COc1cc(C(=O)N2C[C@H]3CC[C@@H]2[C@@H]3N)cc2nc(-c3ccc(Br)c(=O)n3CC3CC3)n(C)c12` [I-111]: the IC50 reads like this: (read-out: hPAD4 AR IC50) < 1000 nM; under setting [1], < 1000 nM.

Turning to `COc1cc(C(=O)N2C[C@H]3CC[C@@H]2[C@@H]3N)cc2nc(-c3ccc(C)c(=O)n3CC3CC3)n(C)c12` [I-112, 6-{5-[(1R,4R,7R)-7-Amino-2-azabicyclo[2.2.1]heptane-2-carbonyl]-7-methoxy-1-methyl-1H-1,3-benzodiazol-2-yl}-1-(cyclopropylmethyl)-3-methyl-1,2-dihydropyridin-2-one], the IC50 by setting is: (read-out: hPAD4 AR IC50) < 1000 nM; under setting [1], < 1000 nM.

With `COc1cc(C(=O)N2C[C@H]3CC[C@@H]2[C@@H]3N)cc2nc(-c3ccc(C)nc3CC3CC3)n(C)c12` [I-115], the IC50 was < 1000 nM (read-out: hPAD4 AR IC50) and < 1000 nM under setting [1].

On to `COc1cc(C(=O)N2C[C@H]3CC[C@@H]2[C@@H]3N)cc2nc(-c3ccc(F)nc3CC3CC3)n(C)c12` [I-117, (1R,4R,7R)-2-{2-[2-(Cyclopropylmethyl)-6-fluoropyridin-3-yl]-7-methoxy-1-methyl-1H-1,3-benzodiazole-5-carbonyl}-2-azabicyclo[2.2.1]heptan-7-amine], for which the IC50 is, setting by setting: (read-out: hPAD4 AR IC50) < 1000 nM; under setting [1], < 1000 nM.
